# Assay results published in PubChem BioAssay AID1963849 (Molecular Pharmacology Branch, DTP, NCI, 2024).
# Test system: 299254-011-R-J1-PDC complex spheroid viability
# Assay: Anticancer human tumor 299254-011-R-J1-PDC patient-derived melanoma cell line growth inhibition [POLQ]
# Conditions: for IC50: curve of first compound; for viability, T/C: stronger effect = lower value
# Summary of the method: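 Complex spheroid viability model combining PDC tumour cells with endothelial (HUVEC) and MSC stromal cells. Novobiocin, ART-558 or RP6685 were tested singly and in combination with standard and investigational anticancer drugs. Each was titrated in half-log steps from near clinical Cmax, or from 10 microM where Cmax was unknown.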
# 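Also: spheroids exposed to drugs for one week before measurement.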
# 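For viability, T/C in this document: percent viability relative to DMSO vehicle control taken as 100%.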
smiles,measurement,setting,value
CC(=O)O[C@H]1C(=O)[C@@]2(C)[C@H]([C@H](OC(=O)c3ccccc3)[C@]3(O)C[C@H](OC(=O)[C@H](O)[C@@H](NC(=O)c4ccccc4)c4ccccc4)C(C)=C1C3(C)C)[C@]1(OC(C)=O)CO[C@@H]1C[C@@H]2O + COC1C(OC(N)=O)C(O)C(Oc2ccc3c(O)c(NC(=O)c4ccc(O)c(CC=C(C)C)c4)c(=O)oc3c2C)OC1(C)C,IC50,second compound 0.0316 µM,0.108 µM
same,IC50,second compound 0.1 µM,0.0707 µM
same,IC50,second compound 0.316 µM,0.0719 µM
same,IC50,second compound 1 µM,0.0719 µM
same,IC50,second compound 3.16 µM,0.124 µM
same,IC50,second compound 10 µM,0.0902 µM
same,"viability, T/C","second compound 0.0316 µM, first compound 0.00949 µM",77.3%
same,"viability, T/C","second compound 0.0316 µM, first compound 0.03 µM",75.9%
same,"viability, T/C","second compound 0.0316 µM, first compound 0.0949 µM",53.4%
same,"viability, T/C","second compound 0.0316 µM, first compound 0.3 µM",23.2%
same,"viability, T/C","second compound 0.0316 µM, first compound 0.949 µM",21.8%
same,"viability, T/C","second compound 0.0316 µM, first compound 3 µM",15.9%
same,"viability, T/C","second compound 0.1 µM, first compound 0.00949 µM",97%
same,"viability, T/C","second compound 0.1 µM, first compound 0.03 µM",63.3%
same,"viability, T/C","second compound 0.1 µM, first compound 0.0949 µM",46.7%
same,"viability, T/C","second compound 0.1 µM, first compound 0.3 µM",30.9%
same,"viability, T/C","second compound 0.1 µM, first compound 0.949 µM",21.4%
same,"viability, T/C","second compound 0.1 µM, first compound 3 µM",16%
same,"viability, T/C","second compound 0.316 µM, first compound 0.00949 µM",101%
same,"viability, T/C","second compound 0.316 µM, first compound 0.03 µM",73.1%
same,"viability, T/C","second compound 0.316 µM, first compound 0.0949 µM",41.4%
same,"viability, T/C","second compound 0.316 µM, first compound 0.3 µM",29.5%
same,"viability, T/C","second compound 0.316 µM, first compound 0.949 µM",21.2%
same,"viability, T/C","second compound 0.316 µM, first compound 3 µM",20%
same,"viability, T/C","second compound 1 µM, first compound 0.00949 µM",95.1%
same,"viability, T/C","second compound 1 µM, first compound 0.03 µM",70%
same,"viability, T/C","second compound 1 µM, first compound 0.0949 µM",43.8%
same,"viability, T/C","second compound 1 µM, first compound 0.3 µM",27.1%
same,"viability, T/C","second compound 1 µM, first compound 0.949 µM",22.2%
same,"viability, T/C","second compound 1 µM, first compound 3 µM",18.3%
same,"viability, T/C","second compound 3.16 µM, first compound 0.00949 µM",90.7%
same,"viability, T/C","second compound 3.16 µM, first compound 0.03 µM",68.3%
same,"viability, T/C","second compound 3.16 µM, first compound 0.0949 µM",61.3%
same,"viability, T/C","second compound 3.16 µM, first compound 0.3 µM",31.5%
same,"viability, T/C","second compound 3.16 µM, first compound 0.949 µM",22.6%
same,"viability, T/C","second compound 3.16 µM, first compound 3 µM",16.8%
same,"viability, T/C","second compound 10 µM, first compound 0.00949 µM",86.6%
same,"viability, T/C","second compound 10 µM, first compound 0.03 µM",84.9%
same,"viability, T/C","second compound 10 µM, first compound 0.0949 µM",47.1%
same,"viability, T/C","second compound 10 µM, first compound 0.3 µM",28%
same,"viability, T/C","second compound 10 µM, first compound 0.949 µM",21.6%
same,"viability, T/C","second compound 10 µM, first compound 3 µM",17.6%
